Results taken from PubChem BioAssay AID602305 (The Scripps Research Institute Molecular Screening Center, 2012).
The source made the active and inactive calls. The rule behind the calls is not given here.

System: cell line, cAMP TR-FRET counterscreen, inhibition
Test: dose response, counter-screen, cell-based (AID 602305)

In the case of CCOP(=O)(CCP(=O)(OCC)OCC)OCC.C[CH2][Sn]([Cl])([Cl])[CH2]C, the IC50 is reported as > 64.5 µM (inactive).
